In article PMC3898987 (Bioorganic & Medicinal Chemistry, 2013):
Where a chain is given by its changes, count along the chain named.

Experiments:
[1] = target: T1, 5-HT3AB receptor, 5-HT3B subunit E170A (Homo sapiens, UniProt P46098); assay: FlexStation membrane potential dye functional assay, HEK293 cells; type: cell-based
T1 construct: variant as stated: E170A
T1 sequence (P46098 24-478): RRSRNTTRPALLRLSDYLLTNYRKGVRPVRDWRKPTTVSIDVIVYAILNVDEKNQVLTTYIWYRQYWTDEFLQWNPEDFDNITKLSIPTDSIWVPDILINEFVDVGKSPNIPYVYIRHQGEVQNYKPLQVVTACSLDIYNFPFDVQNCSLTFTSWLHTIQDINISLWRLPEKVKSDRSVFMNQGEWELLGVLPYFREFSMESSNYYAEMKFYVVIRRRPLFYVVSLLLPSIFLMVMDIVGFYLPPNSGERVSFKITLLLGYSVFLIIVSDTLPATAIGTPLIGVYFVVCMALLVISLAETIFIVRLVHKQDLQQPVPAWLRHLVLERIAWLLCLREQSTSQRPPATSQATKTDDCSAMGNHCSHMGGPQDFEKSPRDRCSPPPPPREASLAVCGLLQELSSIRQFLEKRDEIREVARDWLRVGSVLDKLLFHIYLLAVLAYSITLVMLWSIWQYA
T1 sequence (O95264 22-441 partner): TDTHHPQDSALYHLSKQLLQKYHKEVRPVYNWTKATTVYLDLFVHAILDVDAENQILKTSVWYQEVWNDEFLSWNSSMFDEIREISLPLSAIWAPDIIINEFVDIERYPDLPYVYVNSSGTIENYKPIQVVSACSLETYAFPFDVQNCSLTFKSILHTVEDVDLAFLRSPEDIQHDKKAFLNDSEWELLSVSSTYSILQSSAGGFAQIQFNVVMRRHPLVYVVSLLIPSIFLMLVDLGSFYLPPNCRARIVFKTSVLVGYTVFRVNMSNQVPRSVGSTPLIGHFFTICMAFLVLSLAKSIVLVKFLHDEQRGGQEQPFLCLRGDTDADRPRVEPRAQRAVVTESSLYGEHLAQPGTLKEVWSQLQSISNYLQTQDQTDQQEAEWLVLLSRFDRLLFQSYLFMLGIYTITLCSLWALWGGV
Experimental: Human embryonic kidney (HEK) 293 cells were cultured on 90 mm tissue culture plates at 37 °C and 7% CO2 in a humidified atmosphere. They were grown in DMEM:F12 (Dulbecco’s Modified Eagle’s Medium/Nutrient Mix F12 (1:1)) with GlutaMAX I™ containing 10% fetal calf serum and passaged when confluent. […] For FlexStation assays, transfected cells were plated on 96-well plates and incubated 1–2 days before assay.
Mutagenesis reactions were performed using either the Kunkel method or the QuikChange kit (Agilent Technologies Inc., CA, USA) using human 5-HT3A or 5-HT3B receptor subunit cDNA (accession numbers: P46098 and O95264) in pcDNA3.1 (Invitrogen, Paisley, UK). Subunit numberings have been altered to the aligning residues in the mouse 5-HT3A subunit for ease of comparison with other studies.
(§1) Fluorometric studies were undertaken using a FlexStation® (Molecular Devices, Sunnyvale, CA, USA) as previously described.[11]
(§2) Fluorescence was measured every 2 s for 200 s. […] Concentration–response and inhibition curves were obtained for each mutant, and the fluorescence values were normalized to the maximal response.

5-HT3A receptor Y73A = target: T2, 5-HT3A receptor Y73A (Homo sapiens, UniProt P46098, Y68A); assay: as above; type: cell-based; set-up: expressed in transfected cells; host or cells: HEK293; conditions: inhibition of 5-HT (EC50 concentration) response, 45 min preincubation, 5-HT3A Y73A
T2 sequence (P46098 24-478 Y68A): T1 sequence (P46098 24-478) with Y45A
Experimental: For FlexStation assays, transfected cells were plated on 96-well plates and incubated 1–2 days before assay.
as §1, §2

5-HT3A receptor D165A = target: T3, 5-HT3A receptor D165A (Homo sapiens, UniProt P46098, D160A); assay: radioligand saturation binding, transfected HEK293 membranes; conditions: [3H]-palonosetron saturation, 5-HT3A D165A, 4 °C, 24 h
T3 sequence (P46098 24-478 D160A): T1 sequence (P46098 24-478) with D137A
Experimental: (§3) Human embryonic kidney (HEK) 293 cells were cultured on 90 mm tissue culture plates at 37 °C and 7% CO2 in a humidified atmosphere. They were grown in DMEM:F12 (Dulbecco’s Modified Eagle’s Medium/Nutrient Mix F12 (1:1)) with GlutaMAX I™ containing 10% fetal calf serum and passaged when confluent. For radioligand binding studies, cells in 90 mm dishes were transfected at 60–70% confluency using polyethyleneimine and incubated for 3–4 days before use. For FlexStation assays, transfected cells were plated on 96-well plates and incubated 1–2 days before assay. […]
(§4) Eight-point binding assays were performed to produce saturation binding curves. […] Radioactive counts were measured using a Beckman LS6000SC liquid scintillation counter (Fullerton, California, USA).
(§5) Data were analyzed by iterative curve fitting using GraphPad Prism v5 (San Diego, CA) according to the following equation: B=Bmax[L]^n/kdn+[L]^n where B is the amount of bound radioligand, Bmax is the maximum specific binding at equilibrium, [L] is the concentration of radioligand, Kd is the equilibrium dissociation constant of the radioligand, and n is the Hill coefficient.

5-HT3A receptor W90C = target: T4, 5-HT3A receptor W90C (Homo sapiens, UniProt P46098, W85C); assay: as above; conditions: [3H]-palonosetron saturation, 5-HT3A W90C, 4 °C, 24 h, NB = no binding
T4 sequence (P46098 24-478 W85C): T1 sequence (P46098 24-478) with W62C
Experimental: as §3, §4, §5

O=C1c2cccc3c2[C@H](CCC3)CN1[C@@H]1CN2CCC1CC2 [Palonosetron]
IC50 [1]: 360 ± 110 pM | IC50 (5-HT3A receptor Y73A): 13100 ± 1600 pM | Kd (5-HT3A receptor D165A): 300 ± 80 pM | Kd (5-HT3A receptor W90C): > 2000 pM | Kd (5-HT3A receptor W90C; listed as [^3H]palonosetron): no saturable, specific binding
